Assay results taken from the NIST ThermoML archive (doi:10.1007/s10765-013-1492-1).
Several values for one entry are separate records, joined by “and”; a condition that tells them apart may be missing. Identical values can stand only once.

Legend:
[1] = 101 kPa, Liquid
[2] = xn = mol fraction of the nth substance listed; details: 101 kPa, Liquid

O=Cc1ccccc1 [benzaldehyde]
[1]
Details | mass density | speed of sound | viscosity
303.15 K | 1031.7 kg/m3 and 1035.7 kg/m3 | 1452 m/s | 1.32 mPa·s
308.15 K | 1031.3 kg/m3 | 1428 m/s and 1428.8 m/s | 1.249 mPa·s and 1.249 mPa·s
313.15 K | 1028 kg/m3 | 1413 m/s | 1.242 mPa·s and 1.241 mPa·s

O=Cc1ccccc1 [benzaldehyde] + Clc1ccccc1
[2]
Details | mass density, 303.15 K [kg/m3] | mass density, 308.15 K [kg/m3] | mass density, 313.15 K [kg/m3] | speed of sound, 303.15 K [m/s] | speed of sound, 308.15 K [m/s] | speed of sound, 313.15 K [m/s] | viscosity, 303.15 K [mPa·s] | viscosity, 308.15 K [mPa·s] | viscosity, 313.15 K [mPa·s]
x1 = 0.1006 | 1084.3 | 1082 | 1077.9 | 1265 | 1241 | 1235 | 0.7984 | 0.7805 | 0.7641
x1 = 0.2011 | 1081.4 | 1079.1 | 1075 | 1282 | 1258 | 1249 | 0.8332 | 0.8123 | 0.7949
x1 = 0.3015 | 1077.2 | 1075 | 1070.2 | 1299 | 1277 | 1267 | 0.8814 | 0.8532 | 0.8407
x1 = 0.4017 | 1071.9 | 1070.3 | 1065.2 | 1318 | 1296 | 1286 | 0.9297 | 0.905 | 0.8891
x1 = 0.5017 | 1066.5 | 1065.2 | 1059.9 | 1337 | 1316 | 1305 | 0.9803 | 0.9559 | 0.9425
x1 = 0.6017 | 1060.9 | 1059.8 | 1054.6 | 1356 | 1337 | 1325 | 1.029 | 1.009 | 0.9925
x1 = 0.7015 | 1055 | 1053.8 | 1049.1 | 1376 | 1358 | 1345 | 1.082 | 1.061 | 1.045
x1 = 0.8011 | 1048.5 | 1047.5 | 1043.3 | 1397 | 1380 | 1366 | 1.134 | 1.118 | 1.099
x1 = 0.9006 | 1041.6 | 1040.8 | 1036.9 | 1418 | 1403 | 1387 | 1.196 | 1.184 | 1.163
x1 = 1 | 1031.7 | 1031.3 | 1028 | 1452 | 1428 | 1413 | 1.32 | 1.249 | 1.242

O=Cc1ccccc1 [benzaldehyde] + O=[N+]([O-])c1ccccc1
[2]
Details | mass density, 303.15 K [kg/m3] | mass density, 308.15 K [kg/m3] | mass density, 313.15 K [kg/m3] | speed of sound, 303.15 K [m/s] | speed of sound, 308.15 K [m/s] | speed of sound, 313.15 K [m/s] | viscosity, 303.15 K [mPa·s] | viscosity, 308.15 K [mPa·s] | viscosity, 313.15 K [mPa·s]
x1 = 0.1018 | 1170.8 | 1170.6 | 1166.6 | 1409.5 | 1366.2 | 1332.4 | 1.556 | 1.546 | 1.524
x1 = 0.2032 | 1160.2 | 1159.9 | 1150.6 | 1412 | 1372 | 1340 | 1.534 | 1.504 | 1.472
x1 = 0.3043 | 1143 | 1142.6 | 1142.4 | 1414.6 | 1378 | 1348 | 1.495 | 1.456 | 1.45
x1 = 0.4049 | 1130.6 | 1129.8 | 1121.9 | 1417.5 | 1384 | 1356.2 | 1.455 | 1.429 | 1.402
x1 = 0.5051 | 1117.6 | 1117 | 1110.9 | 1420.6 | 1390.6 | 1364.8 | 1.427 | 1.411 | 1.383
x1 = 0.6049 | 1102.6 | 1101.8 | 1101.1 | 1424.5 | 1397.8 | 1374 | 1.405 | 1.389 | 1.371
x1 = 0.7042 | 1083.9 | 1082.7 | 1080.7 | 1428.3 | 1405 | 1383 | 1.359 | 1.354 | 1.343
x1 = 0.8032 | 1065.2 | 1065 | 1064.5 | 1432.5 | 1412.5 | 1392.3 | 1.333 | 1.316 | 1.307
x1 = 0.9018 | 1050.9 | 1048.8 | 1043.8 | 1437 | 1420 | 1401.7 | 1.295 | 1.282 | 1.267
x1 = 1 | 1035.7 | 1031.3 | 1028 | 1452 | 1428.8 | 1413 | 1.32 | 1.249 | 1.241

Clc1ccccc1 [chlorobenzene]
[1]
Details | mass density [kg/m3] | speed of sound [m/s] | viscosity [mPa·s]
303.15 K | 1086.6 | 1249 | 0.7147
308.15 K | 1085.1 | 1224 | 0.7469
313.15 K | 1081.1 | 1220 | 0.7383

Clc1ccccc1 [chlorobenzene] + O=Cc1ccccc1
[2], x2 = 0
Details | mass density [kg/m3] | speed of sound [m/s] | viscosity [mPa·s]
303.15 K | 1086.6 | 1249 | 0.7147
308.15 K | 1085.1 | 1224 | 0.7469
313.15 K | 1081.1 | 1220 | 0.7383

O=[N+]([O-])c1ccccc1 [nitrobenzene]
[1]
Details | mass density [kg/m3] | speed of sound [m/s] | viscosity [mPa·s]
303.15 K | 1189.6 | 1407 | 1.618
308.15 K | 1189.4 | 1361 | 1.618
313.15 K | 1187.2 | 1326 | 1.61

O=[N+]([O-])c1ccccc1 [nitrobenzene] + O=Cc1ccccc1
[2], x2 = 0
Details | mass density [kg/m3] | speed of sound [m/s] | viscosity [mPa·s]
303.15 K | 1189.6 | 1407 | 1.618
308.15 K | 1189.4 | 1361 | 1.618
313.15 K | 1187.2 | 1326 | 1.61
